Experimental data from publication PMC8285493 (Nature Communications, 2021).

Columns and labels:
Experiment in all cases: biochemical
Parameters in all cases: PDE enzyme inhibition, 3H-cAMP / 3H-cGMP scintillation proximity assay
PDE10A = molecular target: T1, PDE10A (Homo sapiens, UniProt Q9Y233)
T1 construct: full-length, Sf9 cell-free extract
Method: (§1) PDE activity assays were performed as previously described. Briefly, cell-free extracts were prepared from Sf9 insect cells recombinantly expressing full-length human PDEs (PDE2A, 3A, 3B, 4B, 7B, 8A, 9A, 10A, 11A). PDE5 was purified from human platelets by homogenization (Microfluidizer, 800 bar, 3 passages), centrifugation (75,000 × g, 60 min, 4 °C), and ion exchange chromatography of the supernatant on a Mono Q 10/10 column (linear NaCl gradient, eluted with 0.2–0.3 M NaCl in a buffer containing 20 mM Hepes pH 7.2 and 2 mM MgCl2). Fractions containing PDE5 activity were pooled and stored at −80 °C. PDE6 was purified from rod outer segments of bovine retinae by Dr. Körschen, Forschungszentrum Jülich, Germany[34]. Bovine PDE1 was purchased from Sigma-Aldrich (P9529, Taufkirchen, Germany). Enzyme inhibition studies were carried out using the commercially available 3H-cAMP and 3H-cGMP Scintillation Proximity Assay (SPA) systems (RPNQ0150, Perkin-Elmer, Rodgau, Germany).

PDE11A = molecular target: T2, PDE11A (Homo sapiens, UniProt Q9HCR9)
T2 construct: full-length, Sf9 cell-free extract
Method: as §1

PDE2A = molecular target: T3, PDE2A (Homo sapiens, UniProt O00408)
T3 construct: full-length, Sf9 cell-free extract
Method: as §1

PDE3A = molecular target: T4, PDE3A (Homo sapiens, UniProt Q14432)
T4 construct: full-length, Sf9 cell-free extract
Method: as §1

PDE3B = molecular target: T5, PDE3B (Homo sapiens, UniProt Q13370)
T5 construct: full-length human PDE3B, Sf9 cell-free extract
Method: as §1

PDE5 = molecular target: T6, PDE5 (Homo sapiens, UniProt O76074)
T6 construct: gene PDE5A; native, purified from human platelets
Method: as §1

PDE6 = molecular target: T7, PDE6 (Bos taurus, UniProt P11541+P23439)
T7 construct: gene PDE6A; native, purified from rod outer segments of bovine retinae
T7 sequence (P11541 1-859): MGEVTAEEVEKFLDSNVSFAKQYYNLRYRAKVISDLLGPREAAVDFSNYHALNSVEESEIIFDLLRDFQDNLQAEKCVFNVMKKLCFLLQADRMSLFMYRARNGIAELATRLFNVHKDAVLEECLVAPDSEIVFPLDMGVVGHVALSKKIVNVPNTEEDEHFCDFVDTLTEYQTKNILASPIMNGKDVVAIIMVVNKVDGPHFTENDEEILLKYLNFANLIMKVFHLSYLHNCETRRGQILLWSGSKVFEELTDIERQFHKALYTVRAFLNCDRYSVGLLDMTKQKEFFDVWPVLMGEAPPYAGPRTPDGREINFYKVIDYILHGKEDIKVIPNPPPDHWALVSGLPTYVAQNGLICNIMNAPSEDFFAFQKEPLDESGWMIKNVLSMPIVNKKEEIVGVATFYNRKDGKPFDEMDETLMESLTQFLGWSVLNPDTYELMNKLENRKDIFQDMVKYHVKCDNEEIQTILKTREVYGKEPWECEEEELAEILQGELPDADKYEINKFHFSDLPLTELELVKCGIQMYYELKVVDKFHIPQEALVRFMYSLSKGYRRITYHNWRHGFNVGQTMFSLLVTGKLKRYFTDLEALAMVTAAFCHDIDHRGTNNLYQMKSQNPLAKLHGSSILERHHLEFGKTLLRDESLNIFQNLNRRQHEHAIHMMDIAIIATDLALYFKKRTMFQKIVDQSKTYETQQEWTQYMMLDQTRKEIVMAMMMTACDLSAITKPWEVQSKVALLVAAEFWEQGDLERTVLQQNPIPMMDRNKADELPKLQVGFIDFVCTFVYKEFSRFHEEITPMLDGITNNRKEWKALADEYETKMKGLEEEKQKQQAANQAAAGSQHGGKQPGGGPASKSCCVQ
T7 sequence (P23439 1-853): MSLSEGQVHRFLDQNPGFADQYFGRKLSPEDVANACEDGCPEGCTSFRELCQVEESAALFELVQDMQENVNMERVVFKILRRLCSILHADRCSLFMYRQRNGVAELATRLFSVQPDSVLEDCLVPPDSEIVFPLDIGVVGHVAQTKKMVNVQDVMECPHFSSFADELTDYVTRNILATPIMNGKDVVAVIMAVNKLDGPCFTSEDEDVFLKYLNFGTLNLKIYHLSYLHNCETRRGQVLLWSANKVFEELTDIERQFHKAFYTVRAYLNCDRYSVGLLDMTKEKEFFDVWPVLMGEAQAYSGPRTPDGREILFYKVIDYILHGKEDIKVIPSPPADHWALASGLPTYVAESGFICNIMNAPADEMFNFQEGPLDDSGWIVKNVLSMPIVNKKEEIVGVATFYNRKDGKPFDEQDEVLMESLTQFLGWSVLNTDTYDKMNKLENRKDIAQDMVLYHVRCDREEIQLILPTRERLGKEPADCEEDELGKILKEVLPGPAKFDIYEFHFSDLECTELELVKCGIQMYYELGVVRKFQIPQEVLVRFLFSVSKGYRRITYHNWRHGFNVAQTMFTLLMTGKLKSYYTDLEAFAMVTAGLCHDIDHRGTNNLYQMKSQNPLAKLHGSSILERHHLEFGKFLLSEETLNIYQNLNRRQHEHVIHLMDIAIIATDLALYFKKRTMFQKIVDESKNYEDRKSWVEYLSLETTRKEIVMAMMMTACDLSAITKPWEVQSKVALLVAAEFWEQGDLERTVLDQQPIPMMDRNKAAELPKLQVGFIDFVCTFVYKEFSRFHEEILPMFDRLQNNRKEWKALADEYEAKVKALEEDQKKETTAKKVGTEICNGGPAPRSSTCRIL
Method: as §1

PDE7B = molecular target: T8, PDE7B (Homo sapiens, UniProt Q9NP56)
T8 construct: full-length, Sf9 cell-free extract
Method: as §1

PDE8A = molecular target: T9, PDE8A (Homo sapiens, UniProt O60658)
T9 construct: full-length, Sf9 cell-free extract
Method: as §1

PDE9A = molecular target: T10, PDE9A (Homo sapiens, UniProt O76083)
T10 construct: full-length, Sf9 cell-free extract
Method: as §1

T9 sequence (O60658 whole entry): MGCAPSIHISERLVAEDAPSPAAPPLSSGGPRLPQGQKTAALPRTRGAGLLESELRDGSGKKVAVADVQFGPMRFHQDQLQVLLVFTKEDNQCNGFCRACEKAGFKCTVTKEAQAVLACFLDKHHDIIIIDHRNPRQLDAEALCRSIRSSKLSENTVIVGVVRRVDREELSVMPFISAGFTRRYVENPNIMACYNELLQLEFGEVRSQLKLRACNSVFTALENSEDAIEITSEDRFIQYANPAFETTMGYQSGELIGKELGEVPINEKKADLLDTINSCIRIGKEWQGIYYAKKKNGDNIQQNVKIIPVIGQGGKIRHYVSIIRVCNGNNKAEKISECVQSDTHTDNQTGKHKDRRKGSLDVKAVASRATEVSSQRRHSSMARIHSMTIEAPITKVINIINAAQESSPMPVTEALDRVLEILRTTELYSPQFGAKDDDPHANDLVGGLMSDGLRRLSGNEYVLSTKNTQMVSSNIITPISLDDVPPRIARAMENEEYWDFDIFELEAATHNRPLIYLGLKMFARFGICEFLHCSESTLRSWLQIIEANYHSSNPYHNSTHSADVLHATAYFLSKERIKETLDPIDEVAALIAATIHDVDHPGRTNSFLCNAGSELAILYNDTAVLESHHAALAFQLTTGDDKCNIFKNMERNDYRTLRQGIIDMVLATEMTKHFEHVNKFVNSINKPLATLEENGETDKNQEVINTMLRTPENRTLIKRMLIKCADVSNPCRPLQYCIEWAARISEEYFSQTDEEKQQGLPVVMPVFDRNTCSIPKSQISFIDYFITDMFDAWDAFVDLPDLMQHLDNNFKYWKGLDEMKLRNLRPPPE
T1 sequence (Q9Y233 whole entry): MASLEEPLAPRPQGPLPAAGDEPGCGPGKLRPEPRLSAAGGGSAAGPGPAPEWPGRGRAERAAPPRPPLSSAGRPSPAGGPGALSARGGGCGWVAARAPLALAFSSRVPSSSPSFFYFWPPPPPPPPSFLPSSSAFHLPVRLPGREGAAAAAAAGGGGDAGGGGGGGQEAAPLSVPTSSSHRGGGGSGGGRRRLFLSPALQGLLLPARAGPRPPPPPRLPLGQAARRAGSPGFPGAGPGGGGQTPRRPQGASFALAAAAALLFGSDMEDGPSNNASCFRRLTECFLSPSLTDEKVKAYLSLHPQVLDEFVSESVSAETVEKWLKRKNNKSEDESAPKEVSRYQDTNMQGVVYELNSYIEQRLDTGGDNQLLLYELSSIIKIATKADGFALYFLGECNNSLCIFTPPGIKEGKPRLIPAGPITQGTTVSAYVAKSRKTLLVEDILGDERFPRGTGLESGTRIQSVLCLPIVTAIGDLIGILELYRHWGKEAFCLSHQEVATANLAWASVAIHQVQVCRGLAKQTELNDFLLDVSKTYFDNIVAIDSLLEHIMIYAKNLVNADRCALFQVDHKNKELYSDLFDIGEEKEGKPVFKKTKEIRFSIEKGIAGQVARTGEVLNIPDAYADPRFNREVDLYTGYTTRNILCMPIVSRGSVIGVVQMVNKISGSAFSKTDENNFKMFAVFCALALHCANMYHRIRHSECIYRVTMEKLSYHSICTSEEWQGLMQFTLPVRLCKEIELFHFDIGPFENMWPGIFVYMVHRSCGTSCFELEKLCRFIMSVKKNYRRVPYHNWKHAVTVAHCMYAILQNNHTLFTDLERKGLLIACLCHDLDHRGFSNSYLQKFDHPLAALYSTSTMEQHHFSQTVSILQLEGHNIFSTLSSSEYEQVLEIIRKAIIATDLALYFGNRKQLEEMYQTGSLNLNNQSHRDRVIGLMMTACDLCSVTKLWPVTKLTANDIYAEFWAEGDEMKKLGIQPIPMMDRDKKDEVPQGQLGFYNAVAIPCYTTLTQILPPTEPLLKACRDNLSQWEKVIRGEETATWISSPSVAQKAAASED
T10 sequence (O76083 whole entry): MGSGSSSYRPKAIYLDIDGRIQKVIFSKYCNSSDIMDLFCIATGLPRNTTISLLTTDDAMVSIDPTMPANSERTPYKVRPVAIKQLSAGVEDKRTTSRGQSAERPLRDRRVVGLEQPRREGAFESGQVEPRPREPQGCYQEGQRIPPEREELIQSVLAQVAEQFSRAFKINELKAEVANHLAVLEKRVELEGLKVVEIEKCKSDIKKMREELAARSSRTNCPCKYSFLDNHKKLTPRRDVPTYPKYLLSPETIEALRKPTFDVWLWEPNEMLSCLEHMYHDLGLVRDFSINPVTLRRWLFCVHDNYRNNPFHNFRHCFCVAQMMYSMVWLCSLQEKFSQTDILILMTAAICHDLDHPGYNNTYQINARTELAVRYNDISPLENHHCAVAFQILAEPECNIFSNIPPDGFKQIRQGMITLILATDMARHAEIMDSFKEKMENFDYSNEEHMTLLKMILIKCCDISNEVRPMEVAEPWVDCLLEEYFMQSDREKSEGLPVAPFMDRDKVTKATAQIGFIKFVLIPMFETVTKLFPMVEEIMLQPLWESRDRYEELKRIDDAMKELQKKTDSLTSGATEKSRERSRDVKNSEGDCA
T8 sequence (Q9NP56 whole entry): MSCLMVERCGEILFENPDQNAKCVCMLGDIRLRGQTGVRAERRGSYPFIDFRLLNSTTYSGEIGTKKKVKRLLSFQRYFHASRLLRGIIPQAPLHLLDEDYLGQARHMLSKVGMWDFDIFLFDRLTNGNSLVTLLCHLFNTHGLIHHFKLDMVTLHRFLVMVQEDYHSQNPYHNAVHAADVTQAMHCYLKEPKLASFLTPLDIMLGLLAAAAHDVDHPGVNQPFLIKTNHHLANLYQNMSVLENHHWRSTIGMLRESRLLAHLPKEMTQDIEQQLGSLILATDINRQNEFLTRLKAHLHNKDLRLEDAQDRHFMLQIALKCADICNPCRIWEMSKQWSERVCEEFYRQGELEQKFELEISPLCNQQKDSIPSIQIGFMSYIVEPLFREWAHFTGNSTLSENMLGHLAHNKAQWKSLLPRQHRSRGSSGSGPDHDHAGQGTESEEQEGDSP
T3 sequence (O00408 whole entry): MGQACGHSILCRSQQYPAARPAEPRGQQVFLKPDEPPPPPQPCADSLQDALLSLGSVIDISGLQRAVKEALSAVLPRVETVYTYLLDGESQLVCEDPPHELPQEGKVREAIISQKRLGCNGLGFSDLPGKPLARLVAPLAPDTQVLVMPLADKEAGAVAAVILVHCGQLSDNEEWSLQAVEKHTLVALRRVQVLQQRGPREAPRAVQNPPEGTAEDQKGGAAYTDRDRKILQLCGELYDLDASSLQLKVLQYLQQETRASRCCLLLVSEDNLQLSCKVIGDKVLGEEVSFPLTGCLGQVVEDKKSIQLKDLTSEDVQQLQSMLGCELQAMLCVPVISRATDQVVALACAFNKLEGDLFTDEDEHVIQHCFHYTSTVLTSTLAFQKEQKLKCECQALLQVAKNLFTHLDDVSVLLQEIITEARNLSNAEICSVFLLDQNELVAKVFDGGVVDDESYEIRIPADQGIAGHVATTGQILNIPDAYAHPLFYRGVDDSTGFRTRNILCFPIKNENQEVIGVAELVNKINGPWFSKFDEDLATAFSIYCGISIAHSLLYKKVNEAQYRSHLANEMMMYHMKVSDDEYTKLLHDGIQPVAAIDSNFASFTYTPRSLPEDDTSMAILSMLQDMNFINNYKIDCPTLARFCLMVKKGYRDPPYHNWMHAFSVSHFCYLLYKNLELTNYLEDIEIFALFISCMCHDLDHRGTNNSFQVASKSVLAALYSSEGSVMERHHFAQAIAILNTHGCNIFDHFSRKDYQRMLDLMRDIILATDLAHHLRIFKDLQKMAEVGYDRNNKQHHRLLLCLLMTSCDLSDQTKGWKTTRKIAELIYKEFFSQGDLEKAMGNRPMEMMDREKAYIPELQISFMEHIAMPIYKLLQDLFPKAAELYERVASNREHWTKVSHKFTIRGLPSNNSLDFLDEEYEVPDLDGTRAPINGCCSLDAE
T4 sequence (Q14432 whole entry): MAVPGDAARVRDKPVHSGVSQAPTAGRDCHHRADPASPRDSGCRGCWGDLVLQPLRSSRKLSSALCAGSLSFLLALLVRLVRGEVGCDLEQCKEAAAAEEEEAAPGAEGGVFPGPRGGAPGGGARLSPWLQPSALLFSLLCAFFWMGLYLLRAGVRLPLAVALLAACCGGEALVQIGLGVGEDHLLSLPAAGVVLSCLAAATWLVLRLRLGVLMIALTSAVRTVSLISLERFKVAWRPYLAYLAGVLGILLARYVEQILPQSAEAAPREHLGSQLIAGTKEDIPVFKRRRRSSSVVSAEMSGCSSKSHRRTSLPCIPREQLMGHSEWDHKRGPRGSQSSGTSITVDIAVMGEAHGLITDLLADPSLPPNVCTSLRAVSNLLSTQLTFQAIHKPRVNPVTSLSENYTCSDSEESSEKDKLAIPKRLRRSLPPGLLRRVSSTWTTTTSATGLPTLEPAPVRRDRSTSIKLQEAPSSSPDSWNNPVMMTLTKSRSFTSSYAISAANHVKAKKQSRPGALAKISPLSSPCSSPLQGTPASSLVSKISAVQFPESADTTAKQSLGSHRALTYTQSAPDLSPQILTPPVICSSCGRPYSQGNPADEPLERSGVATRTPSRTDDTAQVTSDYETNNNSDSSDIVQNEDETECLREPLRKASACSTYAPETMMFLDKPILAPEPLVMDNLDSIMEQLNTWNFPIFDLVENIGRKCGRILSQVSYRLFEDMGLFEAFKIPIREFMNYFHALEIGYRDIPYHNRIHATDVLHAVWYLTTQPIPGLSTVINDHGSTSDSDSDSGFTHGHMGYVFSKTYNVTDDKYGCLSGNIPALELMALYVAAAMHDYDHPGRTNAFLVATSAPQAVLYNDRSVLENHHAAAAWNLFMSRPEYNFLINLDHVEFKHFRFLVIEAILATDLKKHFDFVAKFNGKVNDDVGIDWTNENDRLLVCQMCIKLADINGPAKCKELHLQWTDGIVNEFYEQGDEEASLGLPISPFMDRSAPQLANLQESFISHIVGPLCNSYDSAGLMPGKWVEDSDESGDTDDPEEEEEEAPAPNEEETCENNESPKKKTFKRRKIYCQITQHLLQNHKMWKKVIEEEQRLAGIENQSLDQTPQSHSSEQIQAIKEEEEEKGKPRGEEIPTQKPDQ

- IC50 (PDE10A): 49.8 nM
- IC50 (PDE11A): 1000 nM
- IC50 (PDE2A): 785 nM
- IC50 (PDE3A): 0.023 nM
- IC50 (PDE3B): 0.05 nM
- IC50 (PDE5): 870 nM
- IC50 (PDE6): 1200 nM
- IC50 (PDE7B): > 10000 nM
- IC50 (PDE8A): 8000 nM
- IC50 (PDE9A): > 10000 nM
SMILES: COc1cc2c(cc1OC)-c1c/c(=N\c3c(C)cc(C)cc3C)n(C)c(=O)n1CC2 [trequinsin]
